The values that follow come from PMC10482267, “Safety, tolerability, pharmacokinetics, and pharmacodynamics of single and multiple doses of aficamten in healthy Chinese participants: a randomized, double-blind, placebo-controlled, phase 1 study” (Frontiers in Pharmacology, 2023).

Read-outs that look alike come from different tables or passages of the source.

For one data set, the system named is CYP2D6. On the set-up: method as in not given. Particulars: in vitro; forms metabolites CK-3834282 and CK-3834283; ref not given; cited from earlier work.
Data set [1] is described as follows: Urine pharmacokinetics of aficamten, MD cohort. To be noted: for Ae(0–24) (amount excreted unchanged in urine) / CL renal: MD 5 mg, mean ± SD; for CL renal: human, urine, oral, 5 mg, read-out: CLr (renal clearance) (converted). In kind it is in vivo, human. On the procedure: Blood samples (4 mL) for plasma PK analysis of aficamten and its metabolites (mono-hydroxylated derivative CK-3834282 and its diastereomer CK-3834283) were collected into K2EDTA tubes in the SAD cohorts at the following time points: at pre-dose and at 0.25, 0.5, 1, 1.5, 2, 2.5, 3, 4, 6, 8, 12, 16, 24, 36, 48, 72, 96, and 216 h post-dose. In the MD cohort, blood samples were collected at pre-dose and at 0.25, 0.5, 1, 1.5, 2, 2.5, 3, 4, 6, 8, 12, and 16 h post-dose on day 1; at pre-dose and at 1.5 h post-dose on day 2, days 4–6, and day 9; at pre-dose on day 3, days 7–8, and days 10–13; at pre-dose and at 0.25, 0.5, 1, 1.5, 2, 2.5, 3, 4, 6, 8, 12, 16, 24, 36, 48, 72, 168, and 216 h post-dose on day 14. After collection, blood samples were centrifuged at 1700 g for 10 min at 4°C ± 2°C; plasma was aliquoted and stored at −80°C ± 20°C until analyzed. Meanwhile, samples for urine PK analysis of aficamten were collected in the MD cohort as follows: pre-dose, 0–4 h, 4–8 h, 8–12 h, and 12–24 h on days 1 and 14, respectively.
The samples were determined using a validated ultra-performance liquid chromatography-tandem mass spectrometry (UPLC-MS/MS) method. The detection was performed on a tandem mass spectrometer in the electrospray ionization (ESI)-positive mode. The multiple reactions monitoring (MRM) mode was applied to monitor the following ion transitions: m/z 338.2→213.2 for aficamten and m/z 354.3→ 229.3 for metabolite CK-3834282 and its diastereomer CK-3834283. Note that the diastereomers were separated from chromatography during the analysis. The calibration curves of the plasma and urine samples were linear, ranging from 1 to 500 ng/mL, and the intra- and inter-run accuracies (RE%) and precisions (RSD%) were within ±15%. In addition, the selectivity, matrix effect, extraction recovery, carryover, and stability at different conditions were also fully evaluated.
The urine PK parameters (MD cohort) were calculated as follows: CLR (renal clearance), Ae (amount of drug excreted unchanged in the urine), and Fe (percentage of drug excreted unchanged in the urine).

In the case of `CCc1nc(-c2ccc3c(c2)CC[C@H]3NC(=O)c2cnn(C)c2)no1` [aficamten], the “CYP isoform involved in metabolism” value in the data set with CYP2D6 was “CYP2D6, as the primary isoform involved in aficamten metabolism”. In data set [1] (day 1, urine), the “Ae(0–24) (amount excreted unchanged in urine)” value is 3.2 ± 2.6 µg and the CL renal is 0.158 mL/min. In addition, in data set [1] (day 14, urine), the “Ae(0–24) (amount excreted unchanged in urine)” value is given as 18.5 ± 8.0 µg and the CL renal was 0.228 mL/min. Besides, the “drug excreted with urine in unchanged form” value in data set [1] (multiple doses of 5 mg) is listed as “about 0.37%”.
